One compound from patent US11629155B2, “Small molecule antagonist compound TAC5 series having toll-like receptor 3/7/8/9 inhibitory function” (AJOU UNIVERSITY INDUSTRY-ACADEMIC COOPERATION FOUNDATION, priority 2018, dated 2023) can be followed below.

One assay has as its target T1, TLR9 (Homo sapiens, UniProt Q9NR96).
T1 construct: endogenous in cells; host or cells: THP1-derived macrophages (PMA-differentiated)
T1 sequence (Q9NR96 26-1032): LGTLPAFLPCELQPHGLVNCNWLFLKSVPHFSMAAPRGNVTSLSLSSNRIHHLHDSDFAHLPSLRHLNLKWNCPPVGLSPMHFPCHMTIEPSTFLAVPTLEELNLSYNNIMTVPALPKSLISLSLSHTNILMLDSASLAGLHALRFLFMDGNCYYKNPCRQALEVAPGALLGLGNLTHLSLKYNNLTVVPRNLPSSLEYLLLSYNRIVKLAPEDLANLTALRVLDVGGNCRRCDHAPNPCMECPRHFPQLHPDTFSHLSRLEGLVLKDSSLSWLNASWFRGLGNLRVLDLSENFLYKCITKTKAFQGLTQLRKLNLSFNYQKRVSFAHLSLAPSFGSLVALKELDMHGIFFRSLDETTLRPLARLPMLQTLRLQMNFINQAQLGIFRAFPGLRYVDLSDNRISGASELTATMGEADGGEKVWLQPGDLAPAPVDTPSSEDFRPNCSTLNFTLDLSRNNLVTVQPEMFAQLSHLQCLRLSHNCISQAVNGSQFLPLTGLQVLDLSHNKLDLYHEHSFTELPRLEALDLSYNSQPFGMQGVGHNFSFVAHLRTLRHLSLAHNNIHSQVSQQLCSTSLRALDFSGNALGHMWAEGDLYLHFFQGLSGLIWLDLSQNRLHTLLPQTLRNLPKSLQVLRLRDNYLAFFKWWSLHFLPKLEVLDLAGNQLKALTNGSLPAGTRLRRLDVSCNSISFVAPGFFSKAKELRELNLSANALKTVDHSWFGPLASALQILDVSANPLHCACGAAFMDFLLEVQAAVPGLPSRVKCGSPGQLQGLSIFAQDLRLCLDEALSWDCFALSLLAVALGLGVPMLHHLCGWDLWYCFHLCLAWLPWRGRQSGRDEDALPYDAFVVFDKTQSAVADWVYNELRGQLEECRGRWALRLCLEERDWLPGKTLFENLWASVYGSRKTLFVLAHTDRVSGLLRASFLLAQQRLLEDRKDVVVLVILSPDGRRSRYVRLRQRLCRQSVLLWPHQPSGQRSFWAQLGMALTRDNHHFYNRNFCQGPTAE
The assay is described as follows: CpG ODN-induced TNF-α or IL-6 secretion in THP1-derived macrophages. The note with it: dose-dependent manner, FIGS. 4E-4G. Format: cell-based.

Another assay deals with T2, TLR4 (Homo sapiens, UniProt O00206+Q9Y6Y9).
T2 construct: endogenous in cells; host or cells: THP1-derived macrophages (PMA-differentiated)
As to the kind of experiment: LPS-induced TNF-α secretion (ELISA) in THP1-derived macrophages. The note with it: 1 to 50 μM, FIG. 4D. Type of assay: cell-based.

For a further assay, the target named is T3, TLR2/6 (Homo sapiens, UniProt O60603+Q9Y2C9).
T3 construct: endogenous in cells; host or cells: THP1-derived macrophages (PMA-differentiated)
The assay is described as follows: FSL-1-induced TNF-α secretion (ELISA) in THP1-derived macrophages. Type of assay: cell-based. The following applies: 1 to 50 μM, FIG. 4D. A general note: An ELISA detects its analyte on a solid surface through an enzyme-linked reagent.

In another assay the target is T4, TLR7 (Homo sapiens, UniProt Q9NYK1).
T4 construct: endogenous in cells; host or cells: THP1-derived macrophages (PMA-differentiated)
T4 sequence (Q9NYK1 27-1049): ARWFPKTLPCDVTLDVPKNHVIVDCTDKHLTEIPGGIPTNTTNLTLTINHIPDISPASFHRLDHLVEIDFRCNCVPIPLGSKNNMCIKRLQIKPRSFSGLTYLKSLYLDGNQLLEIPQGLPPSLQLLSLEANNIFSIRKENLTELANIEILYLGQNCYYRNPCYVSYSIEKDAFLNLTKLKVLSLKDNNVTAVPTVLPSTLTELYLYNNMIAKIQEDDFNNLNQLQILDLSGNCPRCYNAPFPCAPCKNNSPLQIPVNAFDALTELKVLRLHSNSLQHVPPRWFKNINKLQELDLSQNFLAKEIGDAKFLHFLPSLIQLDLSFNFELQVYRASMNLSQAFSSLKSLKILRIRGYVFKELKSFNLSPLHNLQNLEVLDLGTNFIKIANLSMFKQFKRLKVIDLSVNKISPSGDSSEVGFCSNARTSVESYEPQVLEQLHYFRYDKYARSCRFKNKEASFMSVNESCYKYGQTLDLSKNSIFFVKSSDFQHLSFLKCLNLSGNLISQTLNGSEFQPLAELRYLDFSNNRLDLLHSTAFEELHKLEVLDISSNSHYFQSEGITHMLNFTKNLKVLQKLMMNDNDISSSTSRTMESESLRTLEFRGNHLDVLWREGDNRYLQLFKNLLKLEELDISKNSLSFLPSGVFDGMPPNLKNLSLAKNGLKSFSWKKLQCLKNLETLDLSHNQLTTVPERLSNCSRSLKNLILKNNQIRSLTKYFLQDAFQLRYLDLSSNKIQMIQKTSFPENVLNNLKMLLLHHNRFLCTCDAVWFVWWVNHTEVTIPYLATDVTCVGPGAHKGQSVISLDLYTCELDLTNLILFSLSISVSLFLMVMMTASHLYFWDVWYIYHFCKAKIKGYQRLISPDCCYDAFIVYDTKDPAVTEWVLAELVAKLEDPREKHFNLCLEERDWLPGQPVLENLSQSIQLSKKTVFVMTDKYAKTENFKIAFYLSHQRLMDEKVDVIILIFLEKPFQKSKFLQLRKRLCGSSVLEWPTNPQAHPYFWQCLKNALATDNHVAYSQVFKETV
The assay is described as follows: IMQ, R848 or CL075-induced TNF-α or IL-6 secretion in THP1-derived macrophages. Type of assay: cell-based. The following applies: R848 or CL075, dose-dependent manner, FIGS. 4E-4G.

A further assay concerns TLR7/8. The assay is described as follows: TLR7/8-mediated IL-6 expression in THP-1 cells. Type of assay: cell-based, human. The note with it: FIG. 4C.

Molecules are shown by their SMILES.

T2 sequence (O00206 24-839): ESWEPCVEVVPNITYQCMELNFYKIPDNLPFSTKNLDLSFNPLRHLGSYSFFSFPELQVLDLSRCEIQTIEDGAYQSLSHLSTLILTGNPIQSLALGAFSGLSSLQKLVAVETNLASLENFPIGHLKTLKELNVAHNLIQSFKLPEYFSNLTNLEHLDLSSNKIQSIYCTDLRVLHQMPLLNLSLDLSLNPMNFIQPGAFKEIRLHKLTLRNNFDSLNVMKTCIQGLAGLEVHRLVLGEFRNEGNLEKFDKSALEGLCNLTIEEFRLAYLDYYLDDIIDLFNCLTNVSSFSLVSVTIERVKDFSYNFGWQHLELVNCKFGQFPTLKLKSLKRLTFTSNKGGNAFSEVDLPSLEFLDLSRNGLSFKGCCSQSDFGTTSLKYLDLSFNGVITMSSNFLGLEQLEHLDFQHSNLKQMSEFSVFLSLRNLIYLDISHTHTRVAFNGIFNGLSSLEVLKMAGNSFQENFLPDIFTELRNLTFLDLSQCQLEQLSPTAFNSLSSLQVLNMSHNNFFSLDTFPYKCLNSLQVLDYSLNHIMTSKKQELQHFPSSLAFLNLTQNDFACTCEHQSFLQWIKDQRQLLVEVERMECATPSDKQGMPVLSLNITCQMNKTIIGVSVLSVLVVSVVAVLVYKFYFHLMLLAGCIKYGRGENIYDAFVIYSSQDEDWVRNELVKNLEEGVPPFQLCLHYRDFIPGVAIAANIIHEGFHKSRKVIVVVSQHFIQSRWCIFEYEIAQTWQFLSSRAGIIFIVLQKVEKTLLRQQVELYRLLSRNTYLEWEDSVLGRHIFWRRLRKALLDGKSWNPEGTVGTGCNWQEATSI
T2 sequence (Q9Y6Y9 17-160 limits assumed): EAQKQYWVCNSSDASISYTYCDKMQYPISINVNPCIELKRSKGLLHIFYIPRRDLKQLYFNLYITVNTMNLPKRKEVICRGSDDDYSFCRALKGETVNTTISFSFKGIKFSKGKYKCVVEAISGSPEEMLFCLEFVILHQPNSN
T3 sequence (O60603 21-784): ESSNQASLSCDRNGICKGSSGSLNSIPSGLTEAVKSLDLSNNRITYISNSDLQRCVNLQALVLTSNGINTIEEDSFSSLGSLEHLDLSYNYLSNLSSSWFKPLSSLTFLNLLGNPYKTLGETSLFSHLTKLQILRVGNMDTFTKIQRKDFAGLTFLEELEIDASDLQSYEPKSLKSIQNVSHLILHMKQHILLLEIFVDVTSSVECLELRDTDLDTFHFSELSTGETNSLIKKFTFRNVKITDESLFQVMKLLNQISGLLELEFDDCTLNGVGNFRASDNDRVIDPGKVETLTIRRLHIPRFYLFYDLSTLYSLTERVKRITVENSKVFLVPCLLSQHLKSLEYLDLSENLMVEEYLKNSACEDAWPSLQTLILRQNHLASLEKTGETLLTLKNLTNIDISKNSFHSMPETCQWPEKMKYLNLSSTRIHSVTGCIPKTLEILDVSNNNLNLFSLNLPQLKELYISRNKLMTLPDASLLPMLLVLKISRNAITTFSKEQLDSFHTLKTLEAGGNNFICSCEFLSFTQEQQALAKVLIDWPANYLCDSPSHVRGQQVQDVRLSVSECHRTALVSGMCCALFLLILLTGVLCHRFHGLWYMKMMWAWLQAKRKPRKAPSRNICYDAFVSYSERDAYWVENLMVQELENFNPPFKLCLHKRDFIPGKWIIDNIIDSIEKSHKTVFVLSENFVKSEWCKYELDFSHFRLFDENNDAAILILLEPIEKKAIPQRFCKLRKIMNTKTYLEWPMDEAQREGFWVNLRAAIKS
T3 sequence (Q9Y2C9 32-796): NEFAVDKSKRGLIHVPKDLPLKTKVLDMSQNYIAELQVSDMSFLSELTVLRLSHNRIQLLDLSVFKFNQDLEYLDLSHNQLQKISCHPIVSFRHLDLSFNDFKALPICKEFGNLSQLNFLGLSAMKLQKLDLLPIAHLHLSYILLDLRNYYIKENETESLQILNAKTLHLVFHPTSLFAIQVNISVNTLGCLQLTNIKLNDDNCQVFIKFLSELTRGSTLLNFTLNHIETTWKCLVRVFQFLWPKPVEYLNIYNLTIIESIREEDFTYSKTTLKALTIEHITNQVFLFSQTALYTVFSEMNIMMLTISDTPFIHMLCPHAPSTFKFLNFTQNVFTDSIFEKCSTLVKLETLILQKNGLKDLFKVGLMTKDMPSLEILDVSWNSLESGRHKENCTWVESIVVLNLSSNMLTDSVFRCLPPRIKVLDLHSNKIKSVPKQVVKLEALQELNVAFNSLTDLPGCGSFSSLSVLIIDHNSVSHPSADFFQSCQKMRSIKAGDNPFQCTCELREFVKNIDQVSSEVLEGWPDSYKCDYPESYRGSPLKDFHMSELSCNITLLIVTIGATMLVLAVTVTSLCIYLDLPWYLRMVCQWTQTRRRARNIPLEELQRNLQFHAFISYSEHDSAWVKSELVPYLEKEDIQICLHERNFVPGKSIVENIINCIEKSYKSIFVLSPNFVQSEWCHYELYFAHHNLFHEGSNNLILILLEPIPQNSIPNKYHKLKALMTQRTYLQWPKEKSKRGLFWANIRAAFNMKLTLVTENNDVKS
Protocol for TLR7/8: RAW264.7 cells (ATCC, Manassas, Va., USA), which are mouse macrophages, were cultured in low-glucose DMEM (Thermo Fisher Scientific Inc.) supplemented with 10% FBS, 100 IU/ml penicillin and 100 μg/ml streptomycin in a culture system. Human monocyte THP1 cells were cultured in RPMI 1640 (Thermo Fisher Scientific Inc.) supplemented with 10% FBS, 100 IU/ml penicillin and 100 μg/ml streptomycin and then differentiation thereof into macrophages was induced using 10 nM phorbol 12-myristate 13-acetate (PMA) (Sigma-Aldrich Co. LLC.) for 24 hours. CL075, R848, CpG-ODN and Poly(I:C) were purchased from InvivoGen (San Diego, Calif., USA), and LPS was purchased from Sigma-Aldrich Co. (St. Louis, Mo., USA).
Cytotoxicity in RAW 264.7 cells was tested by treatment with these compounds at a concentration of 12.5 to 50 μM. […] The inhibitory effect of TAC5-a on TLR-mediated signaling was confirmed by measuring TNF-α secretion through ELISA in THP1-derived macrophages. […] In addition, in order to evaluate the antagonistic effect of TAC5-a on endosomal TLR activation, cells were cultured along with this compound in the presence of R848 (TLR7/8) or CL075 (TLR7/8), imiquimod (IMQ; TLR7), TL8 (TLR8), poly(I:C) (TLR3) or CpG ODN (TLR9) (FIGS. 4E, 4F and 4G).

For the compound `Nc1cccc(COc2cccnc2N)c1` [TAC5-a, 3-((3-aminobenzyl)oxy)pyridin-2-amine], the “TLR9-mediated TNF-α or IL-6 secretion” value on TLR9 is “significantly inhibited”. Also, the “TLR4 (LPS)-mediated TNF-α secretion” value at TLR4 is “did not block”. At TLR2/6, the “TLR2/6 (FSL-1)-mediated TNF-α secretion” value is given as “did not block”. For the same compound, the “TLR7-mediated TNF-α or IL-6 secretion” value at TLR7 was “significantly inhibited”. In addition, in the assay on TLR7/8, the “TLR7/8-mediated IL-6 expression” value is “inhibited”.
